Laboratory results published in the supplement of paper PMC10307832.

Key:
Assay in all cases: relative viability (nuclei count vs DMSO), 5 days (fraction); higher = more cells survive
Doxorubicin + Linsitinib = compound: COc1cccc2c1C(=O)c1c(O)c3c(c(O)c1C2=O)C[C@@](O)(C(=O)CO)C[C@@H]3O[C@H]1C[C@H](N)[C@H](O)[C@H](C)O1 [Doxorubicin] + C[C@]1(O)C[C@@H](c2nc(-c3ccc4ccc(-c5ccccc5)nc4c3)c3c(N)nccn32)C1 [Linsitinib] (partner 1 µM)
Method in brief: (§1)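 Cells from lung cancer lines were seeded into 1536-well plates and, one day later, dosed by pin tool. Treatments were either a single drug or a fixed dose of an anchor drug with five library-drug doses (not always all listed) in √10 steps. After 5 days, nuclei were stained in a one-step fixation (final 0.05% Triton X-100, 1% formaldehyde, 1 ug/ml Hoechst) and counted on 4× images, and relative viability is the treated-to-vehicle nuclei ratio, as the median of duplicate plates.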

BAY61-3606 + Decitabine = compound: COC1=C(C=C(C=C1)C2=CC3=NC=CN3C(=N2)NC4=C(C=CC=N4)C(=O)N)OC [BAY61-3606] + Nc1ncn([C@H]2C[C@H](O)[C@@H](CO)O2)c(=O)n1 [Decitabine] (partner 2 µM)
Method in brief: as §1

Doxorubicin = compound: COc1cccc2c1C(=O)c1c(O)c3c(c(O)c1C2=O)C[C@@](O)(C(=O)CO)C[C@@H]3O[C@H]1C[C@H](N)[C@H](O)[C@H](C)O1 [Doxorubicin]
Method in brief: (§2)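 On vehicle-anchored 1536-well plates, lung cancer cell lines held overnight at 37 °C were pinned with five library-drug doses (not always all listed) spaced by √10. With no medium change over 5 days, they were then fixed, permeabilised and Hoechst-stained in one step and imaged at 4×. MetaXpress counted nuclei, and viability is the median across plates of treated-well over vehicle-well nuclei. Acceptance needed control CV below 25% and at least one doubling.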

BAY61-3606 = compound: COC1=C(C=C(C=C1)C2=CC3=NC=CN3C(=N2)NC4=C(C=CC=N4)C(=O)N)OC [BAY61-3606]
Method in brief: as §2

UMC-11
relative viability (Doxorubicin + Linsitinib; first compound 0.001 µM): 1.1
relative viability (Doxorubicin + Linsitinib; first compound 0.003162 µM): 1.13
relative viability (Doxorubicin + Linsitinib; first compound 0.01 µM): 1.09
relative viability (Doxorubicin + Linsitinib; first compound 0.03162 µM): 0.803
relative viability (Doxorubicin + Linsitinib; first compound 0.1 µM): 0.875
relative viability (BAY61-3606 + Decitabine; first compound 0.02 µM): 0.65
relative viability (BAY61-3606 + Decitabine; first compound 0.06325 µM): 0.476
relative viability (BAY61-3606 + Decitabine; first compound 0.2 µM): 0.601
relative viability (BAY61-3606 + Decitabine; first compound 0.6325 µM): 0.597
relative viability (BAY61-3606 + Decitabine; first compound 2 µM): 0.548
relative viability (Doxorubicin; 0.001 µM): 0.974
relative viability (Doxorubicin; 0.003162 µM): 1.06
relative viability (Doxorubicin; 0.01 µM): 0.913
relative viability (Doxorubicin; 0.03162 µM): 0.692
relative viability (Doxorubicin; 0.1 µM): 0.715
relative viability (BAY61-3606; 0.02 µM): 1.1
relative viability (BAY61-3606; 0.06325 µM): 1.05
relative viability (BAY61-3606; 0.2 µM): 0.955
relative viability (BAY61-3606; 0.6325 µM): 1.06
relative viability (BAY61-3606; 2 µM): 0.991
